Results published in paper PMC3559838 (PLoS ONE, 2013).

Tests used:
[1] = test system: HepG2 cells; assay: Gentian Violet viability staining, 24-well plates; format: cell-based, human; details: 0–10 µM, 72 h
Procedure: (§1) To the other plate, equal molar concentrations of belinostat-G were added similarly. After 72 h, cells were stained with Gentian Violet paint (0.5% w/v; B.P.) and assessed for viability. […] After incubating 24 h, 100-µL drug solution or blank medium was added into each well of 96-well plates. 72 h later, 20 µL of MTS/PES was added into each well for incubation for 3 h. OD values are measured on wavelength 490 nm. Cell growth inhibition was calculated based on the […] with subtraction of background reading for only medium containing wells. The growth inhibition was defined as the percentage of the average […] from drug-treated wells over that from control wells without treatment. The experiment was done in triplicates. IC50 values were calculated using GraphPad PRISM software (GraphPad Software, Inc., La Jolla, CA, USA).

[2] = test system: HepG2 cells; assay: MTS growth inhibition assay; format: cell-based, human; details: Homo sapiens, HepG2, 72 h
Procedure: as §1

Q: For `O=C(/C=C/c1cccc(S(=O)(=O)Nc2ccccc2)c1)NO` [Belinostat, N-hydroxy-3-(phenylsulphamoylphenyl) acrylamide], which “cytotoxicity / cell viability (staining)” value [1] is on record?
A: significant dose-dependent cytotoxicity

Q: What about the IC50 [2] of the same compound?
A: 6.4 µM
